Experimental data from patent US20250129095A1, “ANNULATED 2-AMINO-3-CYANO THIOPHENES AND DERIVATIVES FOR THE TREATMENT OF CANCER” (Boehringer Ingelheim Int'l GmbH Corp., priority 2021, published 2025).

Experiments:
KRAS (G12D)::SOS1 = target: T1, KRAS (G12D)::SOS1 (Homo sapiens, UniProt P01116, G12D); assay: KRAS::SOS1 AlphaScreen binding assay, KRAS G12D; conditions: read-out: KRASG12D IC50
T1 construct: KRAS (G12D) 1-169, N-terminal 6His-tag, C-terminal avi-tag; 6His-tag (N); purchased Xtal BioStructures, Inc. (KRAS); Viva Biotech Ltd (SOS1)
T1 sequence (P01116 1-169 isoform P01116-2 G12D): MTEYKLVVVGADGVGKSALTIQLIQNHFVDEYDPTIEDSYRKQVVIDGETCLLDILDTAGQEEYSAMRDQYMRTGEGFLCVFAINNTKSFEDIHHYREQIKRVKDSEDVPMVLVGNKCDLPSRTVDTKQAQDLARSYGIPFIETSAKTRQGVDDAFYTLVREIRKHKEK
Source text: (§1) This assay can be used to examine the potency with which compounds according to the invention binding to (mutated) KRAS inhibit the protein-protein interaction between SOS1 and (mutated) KRAS e.g., KRAS WT, KRAS G12C, KRAS G12D, KRAS G12V, KRAS G13D. […] Low IC50 values in this assay setting are indicative of strong inhibition of protein-protein interaction between SOS1 and KRAS:
(§2) These assays measure the inhibitory effect of compounds on KRAS mutant protein-protein interactions using the Alpha Screen technology by Perkin Elmer
(§3) The following (mutant) enzyme forms of KRAS and interacting proteins are used in these assays at the given concentrations: • KRAS (G12D) 1-169, N-terminal 6His-tag, C-terminal avi-tag (Xtal BioStructures, Inc.); final assay concentration 10 nM and SOS1 564-1049, N-terminal 229 GST-tag, TEV cleavage site (Viva Biotech Ltd); final assay concentration 5 nM; • KRAS (G12C) 1-169, N-terminal 6His-tag for purification, cleaved off, C-terminal avi-tag, biotinylated, mutations: C51S, C80L, C118S (in house); final assay concentration 7.5 nM and SOS1 564-1049, N-terminal 229 GST-tag, TEV cleavage site (Viva Biotech Ltd); final assay concentration 5 nM; • KRAS (G12V) 1-169, N-terminal 6His-tag for purification, cleaved off, C-terminal avi-tag, biotinylated, TEV cleavage site, mutation: C118S, GDP loaded (in house); final assay concentration 10 nM and SOS1 564-1049, N-terminal 229 GST-tag, TEV cleavage site (Viva Biotech Ltd); final assay concentration 10 nM; • KRAS (G13D) 1-169, N-terminal 6His-tag for purification, cleaved off, C-terminal avi-tag, biotinylated, TEV cleavage site, mutation: C118S, GDP loaded (in house); final assay concentration 10 nM and SOS1 564-1049, N-terminal 229 GST-tag, TEV cleavage site (Viva Biotech Ltd); final assay concentration 10 nM; • KRAS (WT) 1-169, N-terminal 6His-tag for purification, cleaved off, C-terminal avi-tag, biotinylated, TEV cleavage site, mutation: C118S, GDP loaded (in house); final assay concentration 10 nM and SOS1 564-1049, N-terminal 229 GST-tag, TEV cleavage site (Viva Biotech Ltd); final assay concentration 10 nM.
(§4) Test compounds dissolved in DMSO are dispensed onto assay plates (Proxiplate 384 PLUS, white, PerkinElmer; 6008289) using an Access Labcyte Workstation with the Labcyte Echo 55×. For the chosen highest assay concentration of 100 μM, 150 nL of compound solution are transferred from a 10 mM DMSO compound stock solution. A series of eleven fivefold dilutions per compound are transferred to the assay plate, compound dilutions are tested in duplicates. DMSO are added as backfill to a total volume of 150 nL.
(§5) The assays run on a fully automated robotic system in a darkened room below 100 Lux. To 150 nl of compound dilution 10 μl of a mix including KRAS mutant protein, SOS1 (final assay concentrations see above) and GDP nucleotide (Sigma G7127; final assay concentration 10 μM) in assay buffer (1×PBS, 0.1% BSA, 0.05% Tween 20) are added into columns 1-24.
(§6) After 30 minutes incubation time 5 μl of Alpha Screen bead mix in assay buffer are added into columns 1-23. Bead mix consists of AlphaLISA Glutathione Acceptor Beads (PerkinElmer, Cat No AL109) and AlphaScreen Streptavidin Donor Beads (PerkinElmer Cat No 6760002) in assay buffer at a final assay concentration of 10 μg/ml each.
(§7) Plates are kept at room temperature in a darkened incubator. After an additional 60 minutes incubation time the signal is measured in a PerkinElmer Envision HTS Multilabel Reader using the AlphaScreen specs from PerkinElmer.
(§8) Each plate contains up to 16 wells of a negative control depending on the dilution procedure (platewise or serial) (DMSO instead of test compound; with KRAS mutant::SOS1 GDP mix and bead mix; column 23) and 16wells of a positive control (DMSO instead of test compound; with KRAS mutant::SOS1 GDP mix w/o bead mix; column 24).
(§9) As internal control known inhibitors of KRAS mutant::SOS1 interaction can be measured on each compound plate. […]

KRAS (G12C)::SOS1 = target: T2, KRAS (G12C)::SOS1 (Homo sapiens, UniProt P01116, C118S/C51S/C80L/G12C); assay: KRAS::SOS1 AlphaScreen binding assay, KRAS G12C; conditions: read-out: KRASG12C IC50
T2 construct: KRAS (G12C) 1-169, N-terminal 6His-tag for purification, cleaved off; 6His-tag (N, cleaved yes); made in house
T2 sequence (P01116 1-169 isoform P01116-2 G12C/C51S/C80L/C118S): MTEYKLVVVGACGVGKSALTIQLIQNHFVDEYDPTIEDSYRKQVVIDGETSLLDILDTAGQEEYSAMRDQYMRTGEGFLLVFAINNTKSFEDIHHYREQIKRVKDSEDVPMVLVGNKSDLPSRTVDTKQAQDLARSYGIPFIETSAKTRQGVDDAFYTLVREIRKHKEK
Source text: as §1, §2, §3, §4, §5, §6, §7, §8, §9

KRAS G12D Ba/F3 = KRAS G12D Ba/F3 (Homo sapiens, UniProt P01116, G12D, cells depend on it); assay: Ba/F3 proliferation assay, KRAS G12D; type: cell-based; conditions: 72 h, AlamarBlue, read-out: KRAS G12D Ba/F3 IC50
KRAS G12D Ba/F3, sequence (P01116 whole entry G12D, canonical isoform): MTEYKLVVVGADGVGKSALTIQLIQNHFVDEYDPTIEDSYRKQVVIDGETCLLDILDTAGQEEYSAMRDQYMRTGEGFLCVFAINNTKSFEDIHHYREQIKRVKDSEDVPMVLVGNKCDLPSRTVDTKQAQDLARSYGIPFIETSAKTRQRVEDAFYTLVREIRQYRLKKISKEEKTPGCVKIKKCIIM
Protocol: Plasmids containing KRASG12 mutants(i.e. G12D, G12C, G12V) are obtained from GeneScript. To generate KRASG12-dependent Ba/F3 models, Ba/F3 cells are transduced with retroviruses containing vectors that harbor KRASG12 isoforms. Platinum-E cells (Cell Biolabs) are used for retrovirus packaging. Retrovirus is added to Ba/F3 cells. To ensure infection, 4 μg/mL polybrene is added and cells are spinfected. […] Cells with an infection efficiency of 10% to 20% are further cultivated and puromycin selection with 1 μg/mL is initiated. As a control, parental Ba/F3 cells are used to show selection status. Selection is considered successful when parental Ba/F3 cells cultures died. To evaluate the transforming potential of KRASG12 mutations, the growth medium is no longer supplemented with IL-3. Ba/F3 cells harboring the empty vector are used as a control. Approximately ten days before conducting the experiments, puromycin is left out.
Compounds are added using an Access Labcyte Workstation with a Labcyte Echo 550 or 555 accoustic dispenser. All treatments are performed in technical duplicates. […] AlamarBlue™ (ThermoFisher), a viability stain, is added and fluorescence measured in the PerkinElmer Envision HTS Multilabel Reader. The raw data are imported into and analyzed with the Boehringer Ingelheim proprietary software MegaLab (curve fitting based on the program PRISM, GraphPad Inc.).

Row | SMILES | IC50 (KRAS (G12D)::SOS1) [nM] | IC50 (KRAS (G12C)::SOS1) [nM] | GI50 (KRAS G12D Ba/F3) [nM]
1 | C[C@H](Oc1cc(O[C@@H]2CNC2(C)C)nc(-c2noc3c2CCC[C@@]32CCCc3sc(N)c(C#N)c32)n1)[C@@H]1C[C@@H](F)CN1C [II-31] | 1 | 1 | 3
2 | C[C@H](Oc1cc(O[C@@H]2CNC[C@@H]2F)nc(-c2noc3c2CCC[C@@]32CCCc3sc(N)c(C#N)c32)n1)[C@@H]1CCCN1C [II-29] | 1 | 2 | 22
3 | C[C@H](Oc1cc(N[C@H]2CCOC2)nc(-c2onc3c2CCC[C@@]32CCCc3sc(N)c(C#N)c32)n1)[C@@H]1CCCN1C [Example I-4] | 4 | 3 | 41
4 | C[C@H](Oc1cc(O[C@@H]2CNC2(C)C)nc(-c2noc3c2CCC[C@@]32CCCc3sc(N)c(C#N)c32)n1)[C@@H]1CCCN1C [II-9] | 1 | 2 | 5
5 | C[C@H](Oc1cc(N(C)CCN(C)C)nc(-c2noc3c2CCC[C@@]32CCCc3sc(N)c(C#N)c32)n1)[C@@H]1CCCN1C [II-20] | 2 | 10 | 304
6 | C[C@H](Oc1cc(Nc2ncco2)nc(-c2noc3c2CCC[C@@]32CCCc3sc(N)c(C#N)c32)n1)[C@@H]1CCCN1C [II-13] | 2 | 2 | 37
7 | C[C@H](Oc1cc(Nc2ccncn2)nc(-c2noc3c2CCC[C@@]32CCCc3sc(N)c(C#N)c32)n1)[C@@H]1CCCN1C [II-15] | 3 | 3 | 59
8 | COc1c(OCC2(N(C)C)COC2)nc(-c2noc3c2CCC[C@@]32CCCc3sc(N)c(C#N)c32)nc1O[C@@H](C)[C@@H]1CCCN1C [II-25] | 1 | 2 | 15
9 | COC[C@H](C)Nc1cc(O[C@@H](C)[C@@H]2CCCN2C)nc(-c2onc3c2CCC[C@@]32CCCc3sc(N)c(C#N)c32)n1 [Example I-5] | 12 | 5 | 122
10 | C[C@H](Oc1cc(Oc2cncnc2)nc(-c2onc3c2CCC[C@@]32CCCc3sc(N)c(C#N)c32)n1)[C@@H]1CCCN1C [Example I-3] | 1 | 1 | 5
11 | C[C@H](Oc1cc(Nc2cnccn2)nc(-c2noc3c2CCC[C@@]32CCCc3sc(N)c(C#N)c32)n1)[C@@H]1CCCN1C [II-14] | 3 | 3 | 59
12 | C[C@H](Oc1cc(N(C)C)nc(-c2noc3c2CCC[C@@]32CCCc3sc(N)c(C#N)c32)n1)[C@@H]1CCCN1C [II-10] | 2 | 2 | 81
13 | CO[C@@H]1C[C@@H]([C@H](C)Oc2cc(O[C@@H]3CNC3(C)C)nc(-c3noc4c3CCC[C@@]43CCCc4sc(N)c(C#N)c43)n2)N(C)C1 [II-30] | 1 | 1 | 5
14 | C[C@H](Oc1cc(Oc2ccon2)nc(-c2noc3c2CCC[C@@]32CCCc3sc(N)c(C#N)c32)n1)[C@@H]1CCCN1C [II-3] | 2 | 2 | 27
15 | C[C@H](Oc1cc(O[C@H]2CNC(C)(C)C2)nc(-c2noc3c2CCC[C@@]32CCCc3sc(N)c(C#N)c32)n1)[C@@H]1CCCN1C (single isomer, unassigned) [II-8] | 1 | 2 | 388
16 | C[C@H](Oc1cc(OCC2(N(C)C)COC2)nc(-c2onc3c2CCC[C@@]32CCCc3sc(N)c(C#N)c32)n1)[C@@H]1CCCN1C [Example I-8] | 2 | 2 | 11
17 | C[C@H](Oc1cc(Oc2cncnc2)nc(-c2noc3c2CCC[C@@]32CCCc3sc(N)c(C#N)c32)n1)[C@@H]1CCCN1C [II-1] | 1 | 1 | 6
18 | C[C@H](Oc1cc(Oc2nccs2)nc(-c2noc3c2CCC[C@@]32CCCc3sc(N)c(C#N)c32)n1)[C@@H]1CCCN1C [II-2] | 2 | 2 | 20
19 | C[C@H](Oc1cc(O[C@H]2CN(C)C(C)(C)C2)nc(-c2noc3c2CCC[C@@]32CCCc3sc(N)c(C#N)c32)n1)[C@@H]1CCCN1C [II-19] | 1 | 4 | 91
20 | C[C@H](Oc1cc(Oc2cnccn2)nc(-c2noc3c2CCC[C@@]32CCCc3sc(N)c(C#N)c32)n1)[C@@H]1CCCN1C [II-7] | 1 | 2 | 10
21 | C[C@H](Oc1cc(Oc2nccs2)nc(-c2onc3c2CCC[C@@]32CCCc3sc(N)c(C#N)c32)n1)[C@@H]1CCCN1C [Example I-1] | 2 | 1 | 11
22 | C[C@H](Oc1cc(OCCO)nc(-c2noc3c2CCC[C@@]32CCCc3sc(N)c(C#N)c32)n1)[C@@H]1CCCN1C [II-6] | 1 | 1 | 16
23 | COCCOc1cc(O[C@@H](C)[C@@H]2CCCN2C)nc(-c2noc3c2CCC[C@@]32CCCc3sc(N)c(C#N)c32)n1 [II-5] | 1 | 2 | 38
24 | C[C@H](Oc1cc(Nc2nccs2)nc(-c2noc3c2CCC[C@@]32CCCc3sc(N)c(C#N)c32)n1)[C@@H]1CCCN1C [II-12] | 6 | 4 | 65
25 | C[C@H]1CN(C)CCCN1c1cc(O[C@@H]2CNC2(C)C)nc(-c2noc3c2CCC[C@@]32CCCc3sc(N)c(C#N)c32)n1 [II-28] | 1 | 6 | 130
26 | C[C@H](Oc1cc(Nc2ccccn2)nc(-c2noc3c2CCC[C@@]32CCCc3sc(N)c(C#N)c32)n1)[C@@H]1CCCN1C [II-16] | 3 | 2 | 43
27 | C[C@H](Oc1cc(O[C@H]2CCOC2)nc(-c2noc3c2CCC[C@@]32CCCc3sc(N)c(C#N)c32)n1)[C@@H]1CCCN1C [II-4] | 2 | 2 | 31
